Like-named read-outs stand apart in the source and are kept apart here.
Key:
[1] = Solubility in solvents and water; format: physicochemical
bacteria = assay: In vitro Ames bacterial reverse mutation test; format: cell-based
mouse lymphoma = assay: Mouse lymphoma assay; format: cell-based
[2] = target: central dopamine D2 receptor (Homo sapiens, UniProt P14416); assay: In vitro receptor binding affinity; details: antagonist
α1 adrenergic receptor = assay: In vitro receptor binding affinity; details: antagonist
α2 adrenergic receptor = assay: In vitro receptor binding affinity; details: antagonist
[3] = tested on: cholinergic muscarinic receptors; assay: In vitro receptor binding affinity
β1-adrenergic receptor = β1-adrenergic receptor (Homo sapiens, UniProt P08588); assay: In vitro receptor binding affinity
β1-adrenergic receptor, sequence (P08588 whole entry): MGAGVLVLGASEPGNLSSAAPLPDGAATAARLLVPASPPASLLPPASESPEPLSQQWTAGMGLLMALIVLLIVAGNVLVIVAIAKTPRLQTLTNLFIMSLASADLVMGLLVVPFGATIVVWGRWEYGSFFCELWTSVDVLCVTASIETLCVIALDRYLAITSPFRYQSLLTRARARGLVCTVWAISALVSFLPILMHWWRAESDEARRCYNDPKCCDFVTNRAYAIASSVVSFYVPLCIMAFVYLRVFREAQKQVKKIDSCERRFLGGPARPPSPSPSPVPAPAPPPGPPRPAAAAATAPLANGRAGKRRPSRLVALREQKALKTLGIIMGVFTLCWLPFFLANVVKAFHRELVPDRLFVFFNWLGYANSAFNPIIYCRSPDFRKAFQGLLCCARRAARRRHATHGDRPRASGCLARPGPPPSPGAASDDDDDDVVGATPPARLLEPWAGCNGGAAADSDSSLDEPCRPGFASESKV

β2-adrenergic receptor = β2-adrenergic receptor (Homo sapiens, UniProt P07550); assay: In vitro receptor binding affinity
β2-adrenergic receptor, sequence (P07550 whole entry): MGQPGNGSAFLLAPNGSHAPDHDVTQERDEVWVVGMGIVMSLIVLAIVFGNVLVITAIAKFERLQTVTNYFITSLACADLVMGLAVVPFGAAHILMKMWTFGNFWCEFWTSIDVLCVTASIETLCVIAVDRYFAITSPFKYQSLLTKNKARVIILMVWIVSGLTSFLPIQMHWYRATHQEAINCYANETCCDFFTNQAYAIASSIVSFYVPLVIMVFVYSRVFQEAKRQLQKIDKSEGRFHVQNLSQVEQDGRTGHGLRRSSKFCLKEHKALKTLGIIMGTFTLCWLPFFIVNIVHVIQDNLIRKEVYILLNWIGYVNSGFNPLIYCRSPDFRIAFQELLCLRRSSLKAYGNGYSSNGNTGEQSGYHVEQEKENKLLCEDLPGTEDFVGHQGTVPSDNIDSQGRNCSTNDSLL

Plasma protein binding = format: in vitro ADME; details: racemic
[4] = Study with oral immediate-release 14C-paliperidone (excretion, metabolism); format: in vivo
[5] = Drug interaction studies with oral paliperidone; format: in vivo, human
Excerpt: Higher doses of paroxetine have not been studied.
This interaction has not been studied with INVEGA HAFYERA.

[6] = tested on: cytochrome P450 isozymes, including CYP1A2, CYP2A6, CYP2C8/9/10, CYP2D6, CYP2E1, CYP3A4, and CYP3A5; assay: Inhibition of drug metabolism in human liver microsomes; format: in vitro ADME
[7] = tested on: CYP1A2, CYP2A6, CYP2C9, and CYP2C19; assay: CYP substrate studies in vitro; format: in vitro ADME, human
P-glycoprotein (P-gp) = P-glycoprotein (P-gp) (Homo sapiens, UniProt P08183); assay: P-gp substrate and inhibition studies in vitro; format: in vitro ADME
P-glycoprotein (P-gp), sequence (P08183 whole entry): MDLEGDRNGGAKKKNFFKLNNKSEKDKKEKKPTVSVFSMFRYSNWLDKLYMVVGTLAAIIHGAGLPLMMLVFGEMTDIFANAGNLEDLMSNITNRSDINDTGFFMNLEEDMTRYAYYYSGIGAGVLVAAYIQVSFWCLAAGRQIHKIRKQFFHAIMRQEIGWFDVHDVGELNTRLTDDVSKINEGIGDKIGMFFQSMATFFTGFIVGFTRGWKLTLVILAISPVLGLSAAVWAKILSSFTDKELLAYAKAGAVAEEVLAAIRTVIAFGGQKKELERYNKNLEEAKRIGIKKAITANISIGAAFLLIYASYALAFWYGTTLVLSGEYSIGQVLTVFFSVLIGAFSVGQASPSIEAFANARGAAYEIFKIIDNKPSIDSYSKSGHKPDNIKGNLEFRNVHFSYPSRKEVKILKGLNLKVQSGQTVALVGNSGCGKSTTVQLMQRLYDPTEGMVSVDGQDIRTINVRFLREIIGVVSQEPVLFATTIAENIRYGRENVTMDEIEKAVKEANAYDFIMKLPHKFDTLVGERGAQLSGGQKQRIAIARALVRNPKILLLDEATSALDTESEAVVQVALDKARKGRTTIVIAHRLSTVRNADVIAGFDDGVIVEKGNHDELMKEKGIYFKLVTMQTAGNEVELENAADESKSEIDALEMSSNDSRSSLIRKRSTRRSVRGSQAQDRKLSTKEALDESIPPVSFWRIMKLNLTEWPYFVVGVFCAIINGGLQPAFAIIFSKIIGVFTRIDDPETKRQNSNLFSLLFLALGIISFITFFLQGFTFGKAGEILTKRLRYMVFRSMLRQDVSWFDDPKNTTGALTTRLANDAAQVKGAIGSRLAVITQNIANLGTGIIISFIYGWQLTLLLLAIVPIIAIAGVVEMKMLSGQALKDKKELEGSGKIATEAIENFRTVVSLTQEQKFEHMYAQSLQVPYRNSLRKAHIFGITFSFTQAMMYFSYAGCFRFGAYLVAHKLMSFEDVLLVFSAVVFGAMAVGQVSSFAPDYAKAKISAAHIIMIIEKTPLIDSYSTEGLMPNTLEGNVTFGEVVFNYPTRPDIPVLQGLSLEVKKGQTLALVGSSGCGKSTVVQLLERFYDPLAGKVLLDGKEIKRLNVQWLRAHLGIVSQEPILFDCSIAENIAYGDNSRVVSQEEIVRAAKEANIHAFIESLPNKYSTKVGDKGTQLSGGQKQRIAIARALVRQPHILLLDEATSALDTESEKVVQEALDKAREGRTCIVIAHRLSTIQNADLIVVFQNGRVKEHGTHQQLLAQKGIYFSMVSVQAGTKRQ

[8] = Pharmacokinetics in specific populations (oral paliperidone studies, population PK modelling); format: in vivo, human; details: elderly subjects
Excerpt: No specific pharmacokinetic studies have been performed with […] in specific populations. All the information is obtained from studies with oral paliperidone or is based on the population pharmacokinetic modelling of oral paliperidone and […].

[9] = tested on: pregnant rats and rabbits; assay: Animal reproduction studies, oral paliperidone during organogenesis; format: in vivo; details: period of organogenesis, mg/m^2
juvenile rats = assay: Juvenile rat study with oral paliperidone; format: in vivo
rat bone marrow = assay: In vivo rat bone marrow micronucleus test
rats = assay: Oral paliperidone study of fertility in rats; format: in vivo
Experimental: These parameters were not affected at an oral dose of 0.63 mg/kg, which is half of the oral MRHD of 12 mg based on mg/m^2 body surface area.
(§1) Serum testosterone and sperm parameters partially recovered, but remained decreased after the last observation (two months after treatment was discontinued).

[10] = human, in vivo, po
Excerpt: Observed signs and symptoms included extrapyramidal symptoms and gait unsteadiness.

[11] = target: central Dopamine type 2 (D2) receptor (Homo sapiens, UniProt P14416); details: at paliperidone plasma concentration 7.5 ng/mL; cited from earlier work
central Dopamine type 2 (D2) receptor, sequence (P14416 whole entry): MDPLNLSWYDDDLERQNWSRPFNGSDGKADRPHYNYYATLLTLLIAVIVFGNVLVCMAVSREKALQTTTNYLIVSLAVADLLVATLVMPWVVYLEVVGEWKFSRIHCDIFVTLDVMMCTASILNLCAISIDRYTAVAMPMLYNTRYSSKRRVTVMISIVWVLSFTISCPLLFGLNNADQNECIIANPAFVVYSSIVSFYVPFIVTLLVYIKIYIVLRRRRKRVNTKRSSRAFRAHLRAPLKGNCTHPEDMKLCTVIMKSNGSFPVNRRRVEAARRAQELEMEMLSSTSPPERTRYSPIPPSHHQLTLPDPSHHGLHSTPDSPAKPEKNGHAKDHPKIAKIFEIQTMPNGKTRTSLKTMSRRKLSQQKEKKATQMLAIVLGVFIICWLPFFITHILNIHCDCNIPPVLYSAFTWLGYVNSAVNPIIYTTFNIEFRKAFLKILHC

clinical = details: human, in vivo, po, 4 mg
serotonin 5HT2A receptor = serotonin 5HT2A receptor (Homo sapiens, UniProt P28223); assay: biochemical
serotonin 5HT2A receptor, sequence (P28223 whole entry): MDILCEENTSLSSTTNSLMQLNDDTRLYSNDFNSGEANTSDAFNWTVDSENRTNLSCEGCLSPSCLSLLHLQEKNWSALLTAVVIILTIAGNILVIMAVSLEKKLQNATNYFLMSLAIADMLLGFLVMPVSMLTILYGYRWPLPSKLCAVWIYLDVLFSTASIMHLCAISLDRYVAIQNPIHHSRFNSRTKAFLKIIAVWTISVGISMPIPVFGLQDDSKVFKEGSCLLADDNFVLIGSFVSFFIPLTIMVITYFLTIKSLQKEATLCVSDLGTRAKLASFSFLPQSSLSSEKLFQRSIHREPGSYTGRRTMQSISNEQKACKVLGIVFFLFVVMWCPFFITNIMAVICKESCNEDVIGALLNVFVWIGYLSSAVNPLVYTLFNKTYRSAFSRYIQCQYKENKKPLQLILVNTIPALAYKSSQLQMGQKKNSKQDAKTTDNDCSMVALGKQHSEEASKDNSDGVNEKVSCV

[12] = tested on: pregnant mice, rats and rabbits; assay: Reproduction toxicity studies with orally administered risperidone; format: in vivo
Excerpt: Increased neuronal cell death occurred in the fetal brains of the offspring of pregnant rats treated at 0.5 to 1.2 times the MRHD; the postnatal development and growth of the offspring was delayed.

Beagle dogs = assay: Subchronic study in Beagle dogs with risperidone; format: in vivo; details: all doses tested ([…]-5.0 mg/kg)
Excerpt: as §1

Juvenile dogs = assay: Juvenile dog study with oral risperidone, 40 weeks

central dopamine D2 receptor, sequence (P14416 whole entry): as the sequence (P14416 whole entry) above

CCCCCCCCCCCCCCCC(=O)OC1CCCn2c1nc(C)c(CCN1CCC(c3noc4cc(F)ccc34)CC1)c2=O (racemic) [paliperidone palmitate, (±)-3-[2-[4-(6-fluoro-1,2-benzisoxazol-3-yl)-1-piperidinyl]ethyl]-6,7,8,9-tetrahydro-2-methyl-4-oxo-4H-pyrido[1,2-c]pyrimidin-9-yl hexadecanoate]
solubility in ethanol and methanol [1]: very slightly soluble | solubility in ethyl acetate [1]: slightly soluble | solubility in polyethylene glycol 400 and propylene glycol [1]: practically insoluble | water solubility [1]: extreme low water solubility | genotoxicity (bacteria): no genotoxicity | genotoxicity (mouse lymphoma): no genotoxicity

Cc1nc2n(c(=O)c1CCN1CCC(c3noc4cc(F)ccc34)CC1)CCCC2O (stereo not drawn) [paliperidone]
Ki [2]: 1.6 to 2.8 nM | Ki (α1 adrenergic receptor): 4 nM | Ki (α2 adrenergic receptor): 17 nM | affinity [3]: no appreciable affinity | affinity (β1-adrenergic receptor): no appreciable affinity | affinity (β2-adrenergic receptor): no appreciable affinity | fraction unbound (Plasma protein binding): 0.26 | dose excreted unchanged into urine ([4]; one week after single oral dose of 1 mg): 59% | administered radioactivity recovered in the feces ([4]; single oral dose of 1 mg): 11% | administered radioactivity recovered in urine ([4]; single oral dose of 1 mg): Approximately 80% | increase in Cmax and AUC of paliperidone ([5]; single 12 mg extended-release tablet with divalproex sodium ER two 500 mg tablets once daily): approximately 50% | increase in renal clearance of paliperidone ([5]; with carbamazepine): 35% | change in mean Cmax and AUC at steady-state ([5]; with paroxetine 20 mg/day oral): increase in mean Cmax and AUC values | inhibition of metabolism of drugs metabolized by cytochrome P450 isozymes [6]: does not substantially inhibit | substrate of CYP isozymes [7]: not a substrate for CYP1A2 | substrate of CYP isozymes ([7]; listed as Paliperidone): not a substrate | P-gp inhibition (P-glycoprotein (P-gp); at high concentrations): weak inhibitor | P-gp substrate (P-glycoprotein (P-gp); in vitro): substrate of P-glycoprotein (P-gp) | increase of Cmax and AUC compared to young subjects [8]: 1.2 fold | exposure without increases in fetal abnormalities [9]: up to 8 times the oral MRHD of 12 mg | no-effect dose for reversible impairment of learning and memory (juvenile rats; females only, oral, days 24 to 73 of age): 0.63 mg/kg/day | doses without other consistent effects on neurobehavioral or reproductive development (juvenile rats; highest dose tested): ≤ 2.5 mg/kg/day | genotoxicity (bacteria): not genotoxic | genotoxicity (mouse lymphoma): not genotoxic | genotoxicity (rat bone marrow): not genotoxic | oral doses at which percentage of treated female rats that became pregnant was not affected (rats; 2 times the oral MRHD of 12 mg): up to 2.5 mg/kg/day | dose with increased pre- and post-implantation loss and slightly decreased live embryos (rats; female, rat, in vivo, po): 2.5 mg/kg | oral dose at which these parameters were not affected (rats; half of the oral MRHD of 12 mg): 0.63 mg/kg | oral doses at which fertility of male rats was not affected (rats; mg/m^2): up to 2 times the oral MRHD of 12 mg/day | highest estimated ingestion in overdose [10]: 405 mg | central D2 receptor occupancy [11]: 60% | Cmax (clinical): 35 ng/mL | Ki (serotonin 5HT2A receptor): 0.8 to 1.2 nM

Cc1nc2n(c(=O)c1CCN1CCC(c3noc4cc(F)ccc34)CC1)CCCC2 [risperidone]
maternal toxicity ([12]; pregnant mice): 4 times the MRHD | learning impaired in adult offspring ([12]; pregnant rats): 0.6 times the MRHD | oral doses at which pup deaths occurred ([12]; rat reproduction studies, mg/m^2): less than the MRHD | doses with no evidence of teratogenicity ([12]; rats and rabbits, embryo-fetal developmental toxicity): up to 6 times the MRHD of 16 mg/day | effect on serum testosterone and sperm (Beagle dogs): decreases in serum testosterone and in sperm motility and concentration | no-effect dose for decreased bone length and density (Juvenile dogs): 0.31 mg/kg/day
